In patent US11701433B2, “Complexes for delivery of antigenic peptides” (The Regents of the University of Michigan, priority 2017, dated 2023):

Key:
[1] = test system: STING; assay: Immunoblot of STING protein level in SOX2-expressing cells treated with inhibitors of autophagy; format: cell-based; conditions: HEK-293T and UMSCC22b cells
Procedure: Cell culture: UMSCC22b and UMSCC47 were obtained from the U-M Head and Neck Cancer SPORE. PCI-13 was obtained from the University of Pittsburgh Head and Neck Cancer SPORE. HEK-293T was purchased from ATCC. The human HNSCC cells and HEK293T cells were maintained in complete DMEM medium. The MOC2-E6/E7 cells were obtained from Dr. David Mooney at Harvard University, the parental and derivative cell lines were cultured in 30% F12 nutrient mix (Thermo Fisher Scientific, Waltham, Mass.), 5% FBS, puromycin […], insulin (4 mg/ml), hydrocortisone (200 ug/ml), EGF (100 ug/ml) and penicillin (100 U/ml) and streptomycin […]. THP1-blue ISG cells (Cat. thp-isg, InvivoGen, San Diego, Calif.) were cultured in RPMI media supplemented with 10% FBS, 1% penicillin, streptomycin, Normocin and Zeocin. NK cells, T cells, and tumor-infiltrating lymphocytes were cultured in complete RPMI 1640 medium. Peripheral blood monocytes were separated from healthy volunteers using Ficoll-Paque gradient. Primary human NK and CD8^+ T cells were separated using a NK cell enrichment kit and a CD8^+ T cell enrichment kit, respectively (Cat. 19055 and Cat. 19053, […] Technologies Inc, Cambridge, Mass.). All cells were cultured in 37° C. incubator with 5% CO2. […] Tumors were measured every other day using a caliper, and the tumor volume was calculated as 0.52×length×width^2. […]

[2] = test system: MOC2-E6/E7 tumors; assay: Real time PCR of Ifna4 and Ifnb1 in tumor homogenates; format: in vivo, C57BL/6 mice; conditions: R9F/Q15L study, tumors harvested 25 days post-implantation
Procedure: Experimental animals and treatments: Female C57BL6 mice, aged 6-8 weeks, were purchased from the Jackson Laboratory, and maintained in a pathogen-free facility at the University of Michigan. All animal work were done in accordance with and approved by the Institutional Animal Care & Use Committee (IACUC) at the University of Michigan, Ann Arbor. Syngeneic squamous cell carcinoma cells were implanted subcutaneously at the neck. Tumors were measured every other day using a caliper, and the tumor volume was calculated as 0.52×length×width^2. […] To test the efficacy of the vaccine formulations, MOC2-E6/E7 cells were implanted subcutaneously on the back of the neck on day 0. […] Anti-PD-L1 (100 μg/100 μl) (clone B7H1, BioXCell, West Lebanon, N.H.) was administered through intraperitoneal injection on day 1 and 4 after each vaccination.

**Q.** Which “SOX2-induced decrease in STING protein level” value [1] does the source give for `CO/C1=C\C(C)=C\[C@@H](C)[C@@H](O)[C@@H](C)C/C(C)=C/C=C/[C@H](OC)[C@@H]([C@@H](C)[C@@H](O)[C@H](C)[C@@]2(O)C[C@@H](O)[C@H](C)[C@@H](C(C)C)O2)OC1=O` [bafilomycin A] here?
**A.** Its value is “partially restored”.

**Q.** How did the “SOX2-induced decrease in STING protein level” value [1] turn out when `CCN(CC)CCCC(C)Nc1ccnc2cc(Cl)ccc12` (stereo not drawn) [chloroquine] was run?
**A.** Its value is “partially restored”.

**Q.** With cyclic GMP-AMP [cGAMP] as the compound, how does the “production of Ifna4 and Ifnb1 in tumors” value [2] read?
**A.** Its value is “modest effect”.
